Data taken from patent US10590132B2, “Selective estrogen receptor down-regulators” (AstraZeneca AB, priority 2017, dated 2020).

Biological target: Estrogen Receptor (ERα) in MCF-7 cells (Homo sapiens (Human), UniProt P03372)
Assay: MCF-7 ER down-regulation assay (immuno-fluorescence)
Format: cell-based
Settings: maximum downregulation in the assay
Method: The ability of compounds to down-regulate Estrogen Receptor (ER) numbers was assessed in a cell based immuno-fluorescence assay using the MCF-7 human ductal carcinoma breast cell line. MCF-7 cells were revived directly from a cryovial (approx 5×10^6 cells) in Assay Medium (phenol red free Dulbecco's Modified Eagle's medium (DMEM); Sigma D5921) containing 2 mM L-Glutamine and 5% (v/v) Charcoal/Dextran treated foetal calf serum. Cells were syringed once using a sterile 18G×1.5 inch (1.2×40 mm) broad gauge needle and cell density was measured using a Coulter Counter (Beckman). […] Following cell seeding, plates were incubated overnight at 37° C., 5% CO2 (Liconic carousel incubator). Test data was generated using the LabCyte Echomodel 555 compound reformatter which is part of an automated workcell (Integrated Echo 2 workcell). Compound stock solutions (10 mM) of the test compounds were used to generate a 384 well compound dosing plate (Labcyte P-05525-CV1). […] 40 μL of DMSO added to wells in row P on the source plate allowed for DMSO normalisation across the dose range. […]
The Echo uses acoustic technology to perform direct microplate-to-microplate transfers of DMSO compound solutions to assay plates. […] 20 μL of PBS was added to each well and the plates covered with a black plate seal and stored at 4° C. before being read. […]

Chain of Estrogen Receptor (ERα) in MCF-7 cells (P03372 whole entry): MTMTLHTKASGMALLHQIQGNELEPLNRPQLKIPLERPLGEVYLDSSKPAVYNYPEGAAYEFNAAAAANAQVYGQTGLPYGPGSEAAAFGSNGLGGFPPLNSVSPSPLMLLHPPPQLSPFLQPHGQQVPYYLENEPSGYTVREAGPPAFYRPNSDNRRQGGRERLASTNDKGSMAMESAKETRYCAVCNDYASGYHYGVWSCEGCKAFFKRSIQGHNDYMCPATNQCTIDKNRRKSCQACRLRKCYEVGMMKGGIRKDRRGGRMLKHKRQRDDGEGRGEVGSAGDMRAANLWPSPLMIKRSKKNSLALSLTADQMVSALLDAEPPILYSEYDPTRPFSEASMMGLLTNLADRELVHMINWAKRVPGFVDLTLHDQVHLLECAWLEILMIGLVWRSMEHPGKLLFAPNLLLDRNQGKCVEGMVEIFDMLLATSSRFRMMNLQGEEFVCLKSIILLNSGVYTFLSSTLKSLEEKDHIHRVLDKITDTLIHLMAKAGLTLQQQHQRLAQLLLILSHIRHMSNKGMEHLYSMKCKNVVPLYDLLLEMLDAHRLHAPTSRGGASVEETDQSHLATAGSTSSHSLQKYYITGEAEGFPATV

With `COCc1ccc(OCCNCCCF)cc1[C@@H]1c2[nH]c3ccccc3c2C[C@@H](C)N1CC(F)(F)F` [Example 71, 3-fluoro-N-(2-(4-(methoxymethyl)-3-((1R,3R)-3-methyl-2-(2,2,2-trifluoroethyl)-2,3,4,9-tetrahydro-1H-pyrido[3,4-b]indol-1-yl)phenoxy)ethyl)propan-1-amine] as the compound, how does the “% downregulation (in brackets)” value read?
The value was 90%.

Tested on: not listed separately
Assay: Human plasma protein binding (equilibrium dialysis)
Format: in vitro ADME
Settings: dialysis 18 hours
Method: The automated equilibrium dialysis assay in human plasma uses the RED (Rapid Equilibrium Dialysis) Device and sample handling. The assay generally runs over two to three days including delivery of results. After dialysis for 18 hours, plasma and buffer samples are prepared for analysis by liquid chromatography and mass spectrometry. Samples are generally tested in singlicates and quantified by LC/MSMS by using a 7-point calibration curve in plasma. The compounds are pooled together in plasma pools up to 10 compounds. Three reference compounds are used in each run, Propranolol, Metoprolol and Warfarin. Warfarin is used as a control in each pool and Propranolol and Metoprolol are placed randomly in each run. An in-house Excel macro is used for preparation of files for the robot and the mass spectrometer and is also used for the calculations of fraction unbound (fu %) in plasma.

Which “Human plasma protein binding (% free)” value does the source give for `COCc1ccc(OCCNCCCF)cc1[C@@H]1c2[nH]c3ccccc3c2C[C@@H](C)N1CC(F)(F)F` [Example 71, 3-fluoro-N-(2-(4-(methoxymethyl)-3-((1R,3R)-3-methyl-2-(2,2,2-trifluoroethyl)-2,3,4,9-tetrahydro-1H-pyrido[3,4-b]indol-1-yl)phenoxy)ethyl)propan-1-amine] here?
Its value is 0.44 % free.

Which “Human plasma protein binding (% free)” value does the source give for `C[C@@H]1Cc2c([nH]c3ccccc23)[C@@H](c2c(F)ccc(OCCNCCCF)c2F)N1CC1(F)COC1` [Example 13, N-(2-(2,4-difluoro-3-((1R,3R)-2-((3-fluorooxetan-3-yl)methyl)-3-methyl-2,3,4,9-tetrahydro-1H-pyrido[3,4-b]indol-1-yl)phenoxy)ethyl)-3-fluoropropan-1-amine] here?
Its value is 3.5 % free.

For `C[C@@H]1Cc2c([nH]c3ccccc23)[C@@H](c2c(F)ccc(OCCNCCCF)c2F)N1CC(F)F` [Example 51, N-(2-(3-((1R,3R)-2-(2,2-difluoroethyl)-3-methyl-2,3,4,9-tetrahydro-1H-pyrido[3,4-b]indol-1-yl)-2,4-difluorophenoxy)ethyl)-3-fluoropropan-1-amine], which “Human plasma protein binding (% free)” value is on record?
Its value is 2.3 % free.

For `C[C@@H]1Cc2c([nH]c3ccccc23)[C@@H](c2c(F)ccc(OCCNCCCF)c2Cl)N1CC(F)(F)CO` [Example 85, 3-((1R,3R)-1-(2-chloro-6-fluoro-3-(2-((3-fluoropropyl)amino)ethoxy)phenyl)-3-methyl-1,3,4,9-tetrahydro-2H-pyrido[3,4-b]indol-2-yl)-2,2-difluoropropan-1-ol], which “Human plasma protein binding (% free)” value is on record?
Its value is 1.0 % free.

For `COc1ccc(OCCNCCCF)c(F)c1[C@@H]1c2[nH]c3ccc(F)cc3c2C[C@@H](C)N1CC(F)(F)CO` [Example 86, 2,2-difluoro-3-((1R,3R)-6-fluoro-1-(2-fluoro-3-(2-((3-fluoropropyl)amino)ethoxy)-6-methoxyphenyl)-3-methyl-1,3,4,9-tetrahydro-2H-pyrido[3,4-b]indol-2-yl)propan-1-ol], which “Human plasma protein binding (% free)” value is on record?
Its value is 2.6 % free.

For `CC(CN1[C@H](c2c(Cl)ccc(OCCNCCCF)c2Cl)c2[nH]c3ccc(F)cc3c2C[C@H]1C)C(=O)O` (single isomer, unassigned) [Example 130], which “Human plasma protein binding (% free)” value is on record?
Its value is 7.8 % free.

With `COc1ccc(NCCNCCCF)cc1[C@@H]1c2[nH]c3ccccc3c2C[C@@H](C)N1CC(F)(F)F` [Example 40, N1-(3-fluoropropyl)-N2-(4-methoxy-3-((1R,3R)-3-methyl-2-(2,2,2-trifluoroethyl)-2,3,4,9-tetrahydro-1H-pyrido[3,4-b]indol-1-yl)phenyl)ethane-1,2-diamine] as the compound, how does the “Human plasma protein binding (% free)” value read?
Its value is 0.89 % free.

With `C[C@@H]1Cc2c([nH]c3ccccc23)[C@@H](c2ccnc(OCCNCCCF)c2)N1CC(F)(F)F` [Example 102, 3-fluoro-N-(2-((4-((1R,3R)-3-methyl-2-(2,2,2-trifluoroethyl)-2,3,4,9-tetrahydro-1H-pyrido[3,4-b]indol-1-yl)pyridin-2-yl)oxy)ethyl)propan-1-amine] as the compound, how does the “Human plasma protein binding (% free)” value read?
The value was 1.4 % free.

With `Cc1c(N(C)CCN(C)CCCF)ccc(F)c1[C@@H]1c2[nH]c3ccccc3c2C[C@@H](C)N1C[C@H](C)C(=O)O` [Example 147, (S)-3-((1R,3R)-1-(6-fluoro-3-((2-((3-fluoropropyl)(methyl)amino)ethyl)(methyl)amino)-2-methylphenyl)-3-methyl-1,3,4,9-tetrahydro-2H-pyrido[3,4-b]indol-2-yl)-2-methylpropanoic acid] as the compound, how does the “Human plasma protein binding (% free)” value read?
Its value is 19 % free.

With `Cc1c(NCCNCCCF)ccnc1[C@@H]1c2[nH]c3ccccc3c2C[C@@H](C)N1CC(F)(F)F` [Example 95, N1-(3-fluoropropyl)-N2-(3-methyl-2-((1S,3R)-3-methyl-2-(2,2,2-trifluoroethyl)-2,3,4,9-tetrahydro-1H-pyrido[3,4-b]indol-1-yl)pyridin-4-yl)ethane-1,2-diamine] as the compound, how does the “Human plasma protein binding (% free)” value read?
The value was 4.6 % free.

With `C[C@@H]1Cc2c([nH]c3ccc(F)cc23)[C@@H](c2c(F)cnc(OCCNCCCF)c2F)N1CC1(F)CC1` [Example 109, N-(2-((3,5-difluoro-4-((1R,3R)-6-fluoro-2-((1-fluorocyclopropyl)methyl)-3-methyl-2,3,4,9-tetrahydro-1H-pyrido[3,4-b]indol-1-yl)pyridin-2-yl)oxy)ethyl)-3-fluoropropan-1-amine] as the compound, how does the “Human plasma protein binding (% free)” value read?
Its value is 1.9 % free.

With `COc1ccc(OCCNCCCF)c(F)c1[C@@H]1c2[nH]c3ccccc3c2C[C@@H](C)N1CC1(F)COC1` [Example 84, 3-fluoro-N-(2-(2-fluoro-3-((1R,3R)-2-((3-fluorooxetan-3-yl)methyl)-3-methyl-2,3,4,9-tetrahydro-1H-pyrido[3,4-b]indol-1-yl)-4-methoxyphenoxy)ethyl)propan-1-amine] as the compound, how does the “Human plasma protein binding (% free)” value read?
Its value is 6 % free.

With `Cc1c([C@@H]2c3[nH]c4ccccc4c3C[C@@H](C)N2C[C@@H](C)C(=O)O)ccnc1OCCN(C)CCCF` [Example 161, (R)-3-((1R,3R)-1-(2-(2-((3-fluoropropyl)(methyl)amino)ethoxy)-3-methylpyridin-4-yl)-3-methyl-1,3,4,9-tetrahydro-2H-pyrido[3,4-b]indol-2-yl)-2-methylpropanoic Acid] as the compound, how does the “Human plasma protein binding (% free)” value read?
The value was 6.3 % free.

For `C[C@@H]1Cc2c([nH]c3ccc(F)cc23)[C@@H](c2c(F)ccc(NCCNCCCF)c2F)N1CC(F)(F)CO` [Example 89, 3-((1R,3R)-1-(2,6-difluoro-3-((2-((3-fluoropropyl)amino)ethyl)amino)phenyl)-6-fluoro-3-methyl-1,3,4,9-tetrahydro-2H-pyrido[3,4-b]indol-2-yl)-2,2-difluoropropan-1-ol], which “Human plasma protein binding (% free)” value is on record?
Its value is under 3.4 % free.

Which “Human plasma protein binding (% free)” value does the source give for `C[C@@H]1Cc2c([nH]c3ccccc23)[C@@H](c2c(F)ccc(OCCN(C)CCCF)c2F)N1CC1(F)COC1` [Example 154, N-(2-(2,4-difluoro-3-((1R,3R)-2-((3-fluorooxetan-3-yl)methyl)-3-methyl-2,3,4,9-tetrahydro-1H-pyrido[3,4-b]indol-1-yl)phenoxy)ethyl)-3-fluoro-N-methylpropan-1-amine] here?
Its value is 2.7 % free.

With `C[C@@H]1Cc2c([nH]c3ccccc23)[C@@H](c2cccc(OCCNCCCF)n2)N1CC(F)(F)F` [Example 34, 3-fluoro-N-(2-((6-((1S,3R)-3-methyl-2-(2,2,2-trifluoroethyl)-2,3,4,9-tetrahydro-1H-pyrido[3,4-b]indol-1-yl)pyridin-2-yl)oxy)ethyl)propan-1-amine] as the compound, how does the “Human plasma protein binding (% free)” value read?
The value was 2.2 % free.

Which “Human plasma protein binding (% free)” value does the source give for `C[C@@H]1Cc2c([nH]c3ccccc23)[C@@H](c2c(F)ccc(NCCNCCCF)c2F)N1CC(F)(F)F` [Example 88, N1-(2,4-difluoro-3-((1R,3R)-3-methyl-2-(2,2,2-trifluoroethyl)-2,3,4,9-tetrahydro-1H-pyrido[3,4-b]indol-1-yl)phenyl)-N2-(3-fluoropropyl)ethane-1,2-diamine] here?
The value was 0.58 % free.

With `C[C@@H]1Cc2c([nH]c3ccccc23)[C@@H](c2cc(F)cc(OCCNCCCF)c2F)N1CC(F)(F)F` [Example 31, N-(2-(2,5-difluoro-3-((1R,3R)-3-methyl-2-(2,2,2-trifluoroethyl)-2,3,4,9-tetrahydro-1H-pyrido[3,4-b]indol-1-yl)phenoxy)ethyl)-3-fluoropropan-1-amine] as the compound, how does the “Human plasma protein binding (% free)” value read?
The value was 0.41 % free.

For `Cc1c(OCCN(C)CCCF)ccc(F)c1[C@@H]1c2[nH]c3ccccc3c2C[C@@H](C)N1CCC(=O)O` [Example 163, 3-((1R,3R)-1-(6-fluoro-3-(2-((3-fluoropropyl)(methyl)amino)ethoxy)-2-methylphenyl)-3-methyl-1,3,4,9-tetrahydro-2H-pyrido[3,4-b]indol-2-yl)propanoic Acid], which “Human plasma protein binding (% free)” value is on record?
The value was 49 % free.

With `C[C@@H]1Cc2c([nH]c3ccccc23)[C@@H](c2nccc(OCCNCCCF)c2F)N1CC(F)(F)CO` [Example 97, 2,2-difluoro-3-((1S,3R)-1-(3-fluoro-4-(2-((3-fluoropropyl)amino)ethoxy)pyridin-2-yl)-3-methyl-1,3,4,9-tetrahydro-2H-pyrido[3,4-b]indol-2-yl)propan-1-ol] as the compound, how does the “Human plasma protein binding (% free)” value read?
The value was 6.8 % free.

For `CC(CN1[C@H](c2c(Cl)ccc(OCCNCCCF)c2Cl)c2[nH]c3ccc(F)cc3c2C[C@H]1C)C(=O)O` (single isomer, unassigned) [Example 129], which “Human plasma protein binding (% free)” value is on record?
The value was 23 % free.

For `Cc1ccc(OCCNCCCF)c(C)c1[C@@H]1c2[nH]c3ccccc3c2C[C@@H](C)N1CC(F)(F)F` [Example 79, N-(2-(2,4-dimethyl-3-((1R,3R)-3-methyl-2-(2,2,2-trifluoroethyl)-2,3,4,9-tetrahydro-1H-pyrido[3,4-b]indol-1-yl)phenoxy)ethyl)-3-fluoropropan-1-amine], which “Human plasma protein binding (% free)” value is on record?
Its value is under 0.4 % free.

Which “Human plasma protein binding (% free)” value does the source give for `COc1ccc(OCCNCCC(F)(F)F)cc1[C@@H]1c2[nH]c3ccccc3c2C[C@@H](C)N1CC(F)(F)F` [Example 72, 3,3,3-trifluoro-N-(2-(4-methoxy-3-((1R,3R)-3-methyl-2-(2,2,2-trifluoroethyl)-2,3,4,9-tetrahydro-1H-pyrido[3,4-b]indol-1-yl)phenoxy)ethyl)propan-1-amine] here?
The value was under 0.1 % free.

With `COc1ccc(OCCNCCCF)c(C)c1[C@@H]1c2[nH]c3ccccc3c2C[C@@H](C)N1CC(F)(F)F` [Example 26, 3-fluoro-N-(2-(4-methoxy-2-methyl-3-((1R,3R)-3-methyl-2-(2,2,2-trifluoroethyl)-2,3,4,9-tetrahydro-1H-pyrido[3,4-b]indol-1-yl)phenoxy)ethyl)propan-1-amine] as the compound, how does the “Human plasma protein binding (% free)” value read?
The value was 0.22 % free.
